{"source": "patent US12667824B2", "about": "“Carbon dioxide absorbent” (MITSUBISHI GAS CHEMICAL COMPANY, INC., priority 2020, dated 2026)", "key": {"[1]": {"experiment": "Maximum carbon dioxide (CO2) release temperature of amine compound (DSC)", "type": "physicochemical", "conditions": "amine compound with CO2 absorbed, DSC 23 to 250° C., 10° C./min, nitrogen", "procedure": "(Maximum Carbon Dioxide (CO2) Release Temperature of Amine Compound)\nAfter the above evaluation of the carbon dioxide absorption capacity was completed, the amine compound was removed from the desiccator to obtain the amine compound with carbon dioxide absorbed. The DSC measurement was performed on the amine compound with carbon dioxide absorbed as follows, to measure the maximum carbon dioxide release temperature of the amine compound. […] From the DSC curve obtained thereby, the temperature at which the endothermic amount associated with the desorption of carbon dioxide reached the maximum was calculated, and the temperature thereof was used as the maximum carbon dioxide release temperature of the amine compound."}, "[2]": {"experiment": "Amine value of amine compound (JIS K7237-1995 titration)", "type": "physicochemical", "conditions": "0.1 N perchloric acid-acetic acid titration", "method": "The amine value was measured by the following measurement method in accordance with JIS K7237-1995. • (1) Dissolving 0.1 g of the amine compound in 20 mL of the acetic acid. • (2) Calculating the amine value by titrating the solution obtained in the above (1) with the 0.1 N perchloric acid-acetic acid solution using the automatic potentiometric titrator (AT-610 produced by Kyoto Electronics Manufacturing Co., Ltd.)."}, "[3]": {"experiment": "Cycle evaluation (absorption, regeneration at 100° C. for 1 hour)", "conditions": "before and after heating at 100° C. for 1 hour; for Weight Retention 1st Time: 1st regeneration; for Weight Retention 2nd Time: 2nd regeneration", "procedure": "After the above evaluation of the carbon dioxide absorption capacity was completed, the amine compound was removed from the desiccator, and the amine compound with carbon dioxide absorbed was heated at 100° C. for 1 hour to release the carbon dioxide absorbed and regenerate the amine compound. At this time, weights of the amine compound before and after the heat treatment were measured, and a weight retention (1st time) was calculated.\nThen, on the regenerated amine compound, the above evaluation of the carbon dioxide absorption capacity was performed again, and changes of the carbon dioxide concentration in the desiccator were measured after 2 hours and 24 hours (2nd time).\nThen, the amine compound was removed from the desiccator, and the amine compound with carbon dioxide absorbed was heated at 100° C. for 1 hour to release carbon dioxide absorbed and regenerate the amine compound again. At this time, the weights of the amine compound before and after the heat treatment were measured, and the weight retention (2nd time) was calculated.\nNext, on the regenerated amine compound, the above evaluation of the carbon dioxide absorption capacity was evaluated again, and changes of the carbon dioxide concentration in the desiccator were measured after 2 hours and 24 hours (3rd time)."}, "[4]": {"experiment": "Maximum endothermic temperature of amine compound (DSC, volatilization)", "type": "physicochemical", "conditions": "DSC 23 to 350° C., 10° C./min, nitrogen; volatilization of the amine compound", "method": "DSC measurements were performed on the amine compounds used in Examples and Comparative Examples to measure the maximum endothermic temperature of the amine compounds as follows. First, a differential scanning calorimetry was performed on the amine compounds using a differential thermogravimetric analyzer (Product Name: DTG-60 produced by Shimadzu Corporation) under conditions of 23 to 350° C. of a measurement temperature range, 10° C./min of a heating rate, and a nitrogen atmosphere. From the DSC curve obtained thereby, the temperature at which the endothermic amount associated with the volatilization of the amine compound reached the maximum was calculated, and the temperature thereof was used as the maximum endothermic temperature of the amine compound."}, "[5]": {"experiment": "Acid dissociation constant (pKa) of amine compound by acid-base titration", "type": "physicochemical", "conditions": "in purified water, 25±2° C.", "method": "The acid dissociation constant of the amine compound was determined by the following method. • (1) Dissolving 0.2 g of the amine compound in 30 mL of the purified water. • (2) Calculating the acid dissociation constant (pKa) by titrating the solution obtained in the above (1) with the 0.1 N perchloric acid-acetic acid solution using the automatic potentiometric titrator (AT-610 produced by Kyoto Electronics Manufacturing Co., Ltd.).\nStill, let the temperature at the time of measurement be 25±2° C."}}, "note": "Read-outs that look alike come from different tables or passages of the source."}
{"smiles": "NCCCNCC1CCCC(CNCCCN)C1", "note": "(stereo not shown) [Example 5]", "values": [{"measurement": "Maximum CO2 Release Temperature", "setting": "[1]", "value": 97.8, "unit": "°C"}, {"measurement": "Amine Value", "setting": "[2]", "value": 844, "unit": "mgKOH/g"}, {"measurement": "Weight Retention 1st Time", "setting": "[3]", "value": 100, "unit": "%"}, {"measurement": "Weight Retention 2nd Time", "setting": "[3]", "value": 100, "unit": "%"}, {"measurement": "Maximum Endothermic Temperature", "setting": "[4]", "value": 246.7, "unit": "°C"}]}
{"smiles": "NCC1CCC(CN)CC1", "note": "(single isomer, unassigned) [Example 3, 1,4-bis(aminomethyl)cyclohexane]", "values": [{"measurement": "pKa", "setting": "[5]", "value": 11.3}, {"measurement": "Maximum CO2 Release Temperature", "setting": "[1]", "value": 130, "unit": "°C"}, {"measurement": "Amine Value", "setting": "[2]", "value": 789, "unit": "mgKOH/g"}, {"measurement": "Maximum Endothermic Temperature", "setting": "[4]", "value": 155.9, "unit": "°C"}]}
{"smiles": "N#CCCNCC1CCCC(CN)C1", "note": "(stereo not shown) [Example 4]", "values": [{"measurement": "pKa", "setting": "[5]; purified water, read-out: pKa", "value": 10.9}]}
{"smiles": "NCC1CCC(CN)CC1", "note": "(single isomer, unassigned) [Example 2, 1,4-bis(aminomethyl)cyclohexane]", "values": [{"measurement": "pKa", "setting": "[5]; purified water, read-out: pKa", "value": 10.9}, {"measurement": "Maximum CO2 Release Temperature", "setting": "[1]", "value": 135.2, "unit": "°C"}, {"measurement": "Amine Value", "setting": "[2]", "value": 789, "unit": "mgKOH/g"}, {"measurement": "Maximum Endothermic Temperature", "setting": "[4]", "value": 155.6, "unit": "°C"}]}
{"smiles": "NCCNCCNCCN", "note": "[Comparative Example 2, Triethylenetetramine, reference compound]", "values": [{"measurement": "Maximum CO2 Release Temperature", "setting": "[1]", "value": 69.5, "unit": "°C"}, {"measurement": "Amine Value", "setting": "[2]", "value": 1535, "unit": "mgKOH/g"}, {"measurement": "Weight Retention 1st Time", "setting": "[3]", "value": 98, "unit": "%"}, {"measurement": "Weight Retention 2nd Time", "setting": "[3]", "value": 95, "unit": "%"}, {"measurement": "Maximum Endothermic Temperature", "setting": "[4]", "value": 184.1, "unit": "°C"}]}
